Experiments:
[1] = tested on: cancer stem cells (spheroid-forming cells); experiment: Spheroid culture of cancer stem cells in 96-well plate with analyte; assay type: cell-based, mice; conditions: various concentration of analytes, medium without differentiation-inducing component, FIG. 2
Method: (§1) In accordance with the literature ([…]. et. al., Neoplasia, 13(9) 2011, 784 to 791), the subventricular zone was resected from Ink4a/Arf deficient mice and subjected to trypsin treatment to obtain spheroid-forming cells. The resulting spheroids were cultured in a culture medium containing no differentiation-inducing component (DMEM/F12 in which 20 ng/mL of EGF, 20 ng/mL of FGF, B27 supplement in which vitamin A was removed, 200 ng/mL of heparan sulfate, 100 U/mL of penicillin, and 100 U/mL of streptomycin were added) in a flow of 5% carbon dioxide at 37° C. Then, a constitutively active, mutated form of H-Ras and, as necessary, reporter cassettes for detecting, for example, fluorescent signals or selection marker for cell selection, for example, drug-resistant cassettes, were incorporated into cancer stem cells for transformation, and cultured to obtain spheroid-forming cells. These cells were transplanted to the brains of C57BL/6 mice, then the formed brain tumors were resected and subjected to trypsin treatment to obtain cells. Drug-resistant or fluorescent reporter-positive cells were sorted, and then cell cycle markers were introduced into part of the cells. Thus-obtained spheroid-forming cells were cultured under the above-described culturing condition, and used as a sample. […]

[2] = tested on: undifferentiated cancer stem cells; experiment: Effect with altered degree of induction of differentiation by serum; assay type: cell-based, mice; conditions: serum-free vs serum-containing medium, 4 days, FIG. 9
Source text: Using the method similar to Example 1, the degree of induction of differentiation was altered by changing the culture mediums, to observe the effect thereby. Specifically, a group cultured in a serum-free culture medium of Example 1 for consecutive 4 days; a group cultured in a serum-free culture medium for 3 days, and then cultured in a serum-containing culture medium for 1 day; a group cultured in a serum-containing culture medium for 3 days, and then cultured in a serum-free culture medium for 1 day; and the remaining one group cultured in a serum-containing culture medium for 4 days; were prepared. According to such culturing, the degree of induction of differentiation by serum was altered and the effect of doranidazole was confirmed.

[3] = in vivo; cited from earlier work
cancer stem cells [4] = experiment: Radiation-induced double-strand break, Hoechst 33324 and γH2AX double staining; assay type: cell-based, mice; conditions: irradiated, hypoxic condition, FIG. 10
Source text: Cells cultured according to the method of Example 1, with or without doranidazole, were irradiated, followed by double staining with Hoechst 33324 and γH2AX, and then double-strand break was quantified.

[5] = tested on: cancer stem cells (spheroid); experiment: Spheroid cell death monitored with propidium iodide (PI); assay type: cell-based, mice; conditions: for cell death (PI positive area): spheroid, PI added, monitored over time, FIG. 4
Method: In accordance with the literature (Sampetrean O. et. al., Neoplasia, 13(9) 2011, 784 to 791), the subventricular zone was resected from Ink4a/Arf deficient mice and subjected to trypsin treatment to obtain spheroid-forming cells. The resulting spheroids were cultured in a culture medium containing no differentiation-inducing component (DMEM/F12 in which 20 ng/mL of EGF, 20 ng/mL of FGF, B27 supplement in which vitamin A was removed, 200 ng/mL of heparan sulfate, 100 U/mL of penicillin, and 100 U/mL of streptomycin were added) in a flow of 5% carbon dioxide at 37° C. […] These cells were transplanted to the brains of C57BL/6 mice, then the formed brain tumors were resected and subjected to trypsin treatment to obtain cells. Drug-resistant or fluorescent reporter-positive cells were sorted, and then cell cycle markers were introduced into part of the cells. Thus-obtained spheroid-forming cells were cultured under the above-described culturing condition, and used as a sample.

mitochondrial complex II = experiment: Expression levels of mitochondrial complex I to V by electrophoresis and Western Blot; assay type: cell-based, mice; conditions: protein extracted from cells of Example 1, FIG. 7
Method: Furthermore, protein was extracted from cells of Example 1, and the expression levels of mitochondrial complex I to V were measured by electrophoresis and Western Blot.

[6] = tested on: reactive oxygen species (ROS) in mitochondria; experiment: Mito Sox staining, mitochondrial ROS by flow cytometry; assay type: cell-based, mice; conditions: FIG. 8
Source text: Using Mito Sox staining, reactive oxygen species (ROS) in mitochondria was quantified by flow cytometry for the cells cultured according to Example 1, with or without doranidazole, misonidazole, or metronidazole.

[7] = tested on: cancer stem cells (spheroid-forming cells); experiment: Monolayer culture of cancer stem cells, cell cycle and growth; assay type: cell-based, mice; conditions: various concentrations, FIG. 3
Method: as §1, with “sample. The above cells were subjected to monolayer culture.” for “sample.”

[8] = tested on: mitochondria in cancer stem cells; experiment: Mitochondrial function by extracellular flux analysis; assay type: cell-based, mice; conditions: 21% oxygen (normoxic) and 1% oxygen (hypoxic), FIG. 6
Method: (§2) Since the cell cycle was arrested in the G1 phase, a decrease in energy metabolism was suspected. ATP levels under 21% oxygen (normoxic condition) and 1% oxygen (hypoxic condition) were measured using the same cells as in Example 1. […] From this, suppression of mitochondrial function was suspected, and so, mitochondrial function was evaluated by extracellular flux analysis.

cancer stem cells [9] = experiment: ATP levels in cancer stem cells; assay type: cell-based, mice; conditions: 21% oxygen (normoxic) and 1% oxygen (hypoxic), FIG. 6
Method: as §2

Row | Structure (SMILES) | growth of spheroids [1] | effect depending on degree of induction of differentiation by serum [2] | LD50 [3] | radiation-induced double-strand break (cancer stem cells [4]) | type of cell death ([5]; inhibitor comparison, FIG. 5) | cell death (PI positive area) [5] | expression of complex II (mitochondrial complex II) | ROS in mitochondria [6] | cell cycle [7] | growth [7] | oxygen consumption of mitochondria [8] | reserve capacity of mitochondria [8] | ATP content of cancer stem cells (cancer stem cells [9]) | suppression of doranidazole-induced cell death ([5]; compared to DMSO, necrostatin 1 and Z-VAD-FMK, FIG. 5)
1 | O=[N+]([O-])c1nccn1COC(CO)C(O)CO (centres unmarked) [doranidazole] | suppresses the growth of spheroids | when the degree of induction of differentiation by serum is low, the effect of doranidazole is remarkable | ≥ 5000 mg/kg | significantly enhances | ferroptosis | cell death is induced by doranidazole in dose dependent manner | remarkably decreased | significantly increases | arrests the cell cycle in the G1 phase | suppresses growth | decreased depending on the concentration | decreased depending on the concentration | decreased | –
2 | CCOC(=O)c1ccc(NC2CCCCC2)c(N)c1 [ferrostatin 1] | – | – | – | – | – | – | – | – | – | – | – | – | – | significantly suppressed
3 | Cc1ncc([N+](=O)[O-])n1CCO [metronidazole] | – | – | – | – | – | no cell death was observed | – | not observed | – | – | – | – | – | –
4 | COCC(O)Cn1ccnc1[N+](=O)[O-] (centres unmarked) [misonidazole] | – | – | about 1 g/kg | – | – | the cell death was similarly confirmed | remarkably decreased | significantly increases | – | – | – | – | – | –
